Among the data in PubChem BioAssay AID200 (DTP/NCI, 2004) are T/C values, retold here.

This test concerns B6C3F1 mice, B16 melanoma ip, median survival T/C. In words: NCI In Vivo Anticancer Drug Screen. Data for tumor model B16 Melanoma (intraperitoneal) in B6C3F1 mice. The following applies: endpoint: median survival time, schedule: Q01DX009 (ip), higher = longer survival. An outline of the steps:
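Mice bearing transplanted tumor were dosed with compound or vehicle, and survival was recorded. Activity is expressed as the treated-group measurement (T) divided by the vehicle control measurement (C).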

Setting [1] is: dose: 12.5 mg/kg/injection, vehicle: saline with Tween-80.
The mark [2] stands for this setting: dose: 25.0 mg/kg/injection, vehicle: saline with Tween-80.
Setting [3] is: dose: 50.0 mg/kg/injection, vehicle: saline with Tween-80.
Where [4] appears, read: dose: 100.0 mg/kg/injection, vehicle: saline with Tween-80.
The mark [5] stands for this setting: dose: 6.25 mg/kg/injection, vehicle: saline.
[6] abbreviates: dose: 25.0 mg/kg/injection, vehicle: saline.
Where [7] appears, read: dose: 50.0 mg/kg/injection, vehicle: saline.
Where [8] appears, read: dose: 12.0 mg/kg/injection, vehicle: Klucel (hydroxypropylcellulose) (HPC).
Where [9] appears, read: dose: 200.0 mg/kg/injection, vehicle: saline with Tween-80.
[10] abbreviates: dose: 12.5 mg/kg/injection, vehicle: Klucel (hydroxypropylcellulose) (HPC).
The mark [11] stands for this setting: dose: 25.0 mg/kg/injection, vehicle: Klucel (hydroxypropylcellulose) (HPC).
Where [12] appears, read: dose: 50.0 mg/kg/injection, vehicle: Klucel (hydroxypropylcellulose) (HPC).
Setting [13] is: dose: 100.0 mg/kg/injection, vehicle: Klucel (hydroxypropylcellulose) (HPC).
Where [14] appears, read: dose: 200.0 mg/kg/injection, vehicle: Klucel (hydroxypropylcellulose) (HPC).
Setting [15] is: dose: 400.0 mg/kg/injection, vehicle: Klucel (hydroxypropylcellulose) (HPC).
[16] abbreviates: dose: 200.0 mg/kg/injection, vehicle: saline.
[17] abbreviates: dose: 100.0 mg/kg/injection, vehicle: saline.

Several values for one entry are separate records, joined by “and”; a condition that tells them apart may be missing. Equal values may be shown once. Toxic doses and inconclusive results are not listed. Where a SMILES comes first, the peptide text is derived from it. [ ]: non-standard residue; d: D form. The star is where a group is joined. Tyr(3,5-I2) = N[CH](Cc1cc(I)c(O)c(I)c1)C(=O)O; Cbz = O=C(OCc1ccccc1)*; Bn = c1ccc(C*)cc1

For `CN(N=O)C(=O)NCCCCCNC(=O)N(C)N=O`, the T/C is 98 % of control under setting [1], 100 % of control under setting [2], 109 % of control under setting [3] and 110 % of control under setting [4].
For `CCC(C(=O)O)C(=O)O.[NH2-].[NH2-].[Pt+2]`, the T/C by setting is: (dose: 1.56 mg/kg/injection, vehicle: saline) 117 % of control; (dose: 3.12 mg/kg/injection, vehicle: saline) 102 % of control; under setting [5], 102 % of control; under setting [6], 154 % of control; under setting [7], 102 % of control.
In the case of `C/C=C/C=C/c1cc2cc3c(c(O)c2c(=O)[nH]1)C1(CC3)C(O)=c2c(=O)c3c(=O)cc(OC)c(=O)c=3c(=O)c2=C1O` (stereo unspecified), the T/C reads like this: (dose: 0.75 mg/kg/injection, vehicle: Klucel (hydroxypropylcellulose) (HPC)) 114 % of control and 117 % of control; (dose: 1.5 mg/kg/injection, vehicle: Klucel (hydroxypropylcellulose) (HPC)) 114 % of control and 107 % of control; (dose: 3.0 mg/kg/injection, vehicle: Klucel (hydroxypropylcellulose) (HPC)) 116 % of control; (dose: 6.0 mg/kg/injection, vehicle: Klucel (hydroxypropylcellulose) (HPC)) 115 % of control; under setting [8], 115 % of control.
`C=C1COC(O)(C2OCOC(C3CC(=O)NC(=O)C3)C2O)C1C` (stereo unspecified): the T/C (dose: 4.0 micrograms/kg/injection, vehicle: water) was 94 % of control; the T/C (dose: 8.0 micrograms/kg/injection, vehicle: water) was 111 % of control and 113 % of control; the T/C (dose: 16.0 micrograms/kg/injection, vehicle: water) is 109 % of control; the T/C (dose: 32.0 micrograms/kg/injection, vehicle: water) was 115 % of control.
On to `BrC1c2cccc3cccc(c23)C1Br` (stereo unspecified), for which the T/C under setting [1] was 123 % of control and the T/C under setting [3] was 155 % of control.
For the compound `CCCC1CCC(=C2C(=O)CCC2=O)O1` (stereo unspecified), the T/C is 103 % of control under setting [2] and 98 % of control under setting [3].
For `COc1ccc(/C(C#N)=C2\OC(=O)c3ccccc32)cc1OC`, the T/C reads like this: (dose: 3.12 mg/kg/injection, vehicle: saline with Tween-80) 95 % of control; (dose: 6.25 mg/kg/injection, vehicle: saline with Tween-80) 93 % of control; under setting [1], 107 % of control; under setting [2], 88 % of control; under setting [3], 91 % of control; under setting [9], 88 % of control.
For the compound `CCOC(=O)CNC(=O)Sc1ccc(C(C)(C)C)cc1`, the T/C runs as follows: under setting [10], 100 % of control; under setting [11], 100 % of control; under setting [12], 102 % of control; under setting [13], 105 % of control; under setting [14], 115 % of control.
For the compound `Oc1ccc(OCc2ccccc2)cc1`, the T/C runs as follows: under setting [10], 107 % of control and 100 % of control; under setting [11], 91 % of control and 102 % of control; under setting [12], 90 % of control and 96 % of control; under setting [13], 100 % of control and 107 % of control; under setting [14], 98 % of control [middle of 4 runs]; under setting [15], 102 % of control and 94 % of control.
For `O=NNc1ccc(Cl)cn1`, the T/C by setting is: (dose: 1.56 mg/kg/injection, vehicle: water) 118 % of control; (dose: 3.13 mg/kg/injection, vehicle: water) 107 % of control; (dose: 6.25 mg/kg/injection, vehicle: water) 115 % of control; (dose: 12.5 mg/kg/injection, vehicle: water) 166 % of control and 168 % of control.
With `COc1cc2c(c3c1c(=O)c1cccc(F)c1n3C)C=CC(C)(C)O2`, the T/C is 109 % of control under setting [11], 119 % of control under setting [12] and 88 % of control under setting [13].
Take `CC(NC(=O)OCc1ccccc1)C(=O)NC(CC(N)=O)C(=O)O` (stereo not drawn) (Cbz-Ala-Asn-OH; configuration not given here): the T/C was 101 % of control under setting [8]; 101 % of control under setting [11]; 98 % of control under setting [12]; 107 % of control under setting [13]; 104 % of control under setting [15].
`CC(=O)NC(Cc1ccccc1)C(=O)NC(Cc1cc(I)c(O)c(I)c1)C(=O)O` (stereo unspecified) (Ac-Phe-[Tyr(3,5-I2)]-OH; configuration not given here): the T/C under setting [15] was 89 % of control.
With `CC(C)CC(NC(=O)C(CSCc1ccccc1)NC(=O)OCc1ccccc1)C(N)=O` (stereo unspecified) (Cbz-Cys(Bn)-Leu-NH2; configuration not given here), the T/C runs as follows: under setting [10], 107 % of control; under setting [11], 98 % of control; under setting [12], 100 % of control.
In the case of `Cc1cc(N/N=C/c2ccccn2)nc2ccccc12`, the T/C (dose: 6.25 mg/kg/injection, vehicle: Klucel (hydroxypropylcellulose) (HPC)) was 96 % of control; the T/C under setting [10] is 94 % of control and 99 % of control; the T/C under setting [11] is 97 % of control and 98 % of control; the T/C under setting [12] is 93 % of control and 101 % of control; the T/C under setting [13] is 103 % of control and 106 % of control.
Turning to `O=C(Nc1cccnc1)c1ccc([N+](=O)[O-])s1`, the T/C runs as follows: (dose: 1.13 mg/kg/injection, vehicle: saline) 96 % of control; (dose: 1.88 mg/kg/injection, vehicle: saline) 92 % of control; (dose: 3.13 mg/kg/injection, vehicle: saline) 97 % of control; (dose: 5.21 mg/kg/injection, vehicle: saline) 94 % of control; under setting [5], 103 % of control; (dose: 8.69 mg/kg/injection, vehicle: saline) 89 % of control. For the same compound, the T/C by setting is: (dose: 12.5 mg/kg/injection, vehicle: saline) 97 % of control; under setting [6], 87 % of control and 99 % of control.
Turning to `C[C@@H]1CN(C(=O)CCOS(C)(=O)=O)[C@@H](C)CN1C(=O)CCOS(C)(=O)=O`, the T/C under setting [16] is 172 % of control.
As to `CC(C)(O)/C=C/C(=O)[C@](C)(O)[C@H]1[C@H](O)C[C@@]2(C)[C@@H]3CC=C4[C@@H](C=C(O)C(=O)C4(C)C)[C@]3(C)C(=O)C[C@]12C`, the T/C is, setting by setting: (dose: 0.25 mg/kg/injection, vehicle: water) 99 % of control; (dose: 0.5 mg/kg/injection, vehicle: water) 89 % of control; (dose: 1.0 mg/kg/injection, vehicle: water) 89 % of control.
For the compound `Nc1c(Cl)[nH]cnc1=S`, the T/C is, setting by setting: under setting [6], 89 % of control; under setting [7], 105 % of control; under setting [17], 88 % of control and 91 % of control.
As for `Nc1ncnc2c1ncn2C1C=C(CO)C(O)C1O` (stereo unspecified), the T/C (dose: 0.5 mg/kg/injection, vehicle: saline) was 97 % of control and 106 % of control; the T/C (dose: 1.0 mg/kg/injection, vehicle: saline) was 99 % of control and 103 % of control; the T/C (dose: 2.0 mg/kg/injection, vehicle: saline) was 102 % of control and 103 % of control; the T/C (dose: 4.0 mg/kg/injection, vehicle: saline) is 110 % of control and 105 % of control.
Take `CC(O)C(NC(=O)OC(C)(C)C)C(=O)O` (stereo unspecified): the T/C runs as follows: under setting [6], 86 % of control and 100 % of control; under setting [7], 108 % of control and 106 % of control; under setting [17], 108 % of control and 100 % of control; under setting [16], 95 % of control.
On to `NC(N)=N/N=C/c1ccc(Cl)cc1Cl`, for which the T/C by setting is: under setting [6], 100 % of control; under setting [7], 89 % of control; under setting [17], 95 % of control.
Take `O=C(CN1CCOCC1)Nc1nc(-c2ccc(Cl)cc2)cs1`: the T/C runs as follows: under setting [1], 105 % of control; under setting [2], 94 % of control; under setting [3], 96 % of control; under setting [4], 103 % of control; under setting [9], 98 % of control.
